Here are results for six compounds from US12024521B2, “Isoquinoline derivatives, methods of synthesis and uses thereof” (priority 2020, dated 2024).

The structures appear in SMILES notation.

The subject of the assay is HIV-1 (NL4-3 RLuc reporter virus in MT-2 cells). In words: Inhibition of HIV-1 replication, MT-2 spreading infection assay. In kind it is cell-based. The following applies: Human immunodeficiency virus 1, NL43, MT2, 96 h, read-out: HIV activity (μM). Here is the method: Inhibition of HIV-1 viral replication was assayed in a spreading infection using MT-2 cells and NL4-3 RLuc reporter virus. For dose-response curves, compounds were initially diluted with DMSO to 100-fold the starting concentration in a 96-well plate and subjected to a series of 3-fold dilutions in DMSO for a total of eight or nine dilutions. If a single compound concentration was tested, the compound was diluted to 100-fold the desired concentration in DMSO. Compounds were then diluted 50-fold with infection media prepared by diluting NL4-3 RLuc virus stock to 400 IU/100 ul with complete RPMI. Then, 100 ul of 50-fold-diluted compound was transferred to 20,000 MT-2 cells that were preceded in 96-well plates in 100 ul of complete RPMI for a final volume of 200 ul, followed by incubation at 37° C. for 96 h. The final MOI in infected plates was 0.02, and the final DMSO concentration in all wells was 1%. All assays were run with three replicates. For each replicate, one well received DMSO only, and one well received medium only for normalization and background correction. […] Plates were read on a luminescence plate reader (Synergy H1; BioTek Instruments, Inc.).
For `COc1cc2c(c(OC)c1OCc1ccccc1)CCNC2/C=C/c1cc2c(cc1C)OCO2` (stereo not drawn) [Compound 6, 6-benzyloxy-5,7-dimethoxy-1-[(E)-2-(6-methyl-1,3-benzodioxol-5-yl)vinyl]-1,2,3,4-tetrahydroisoquinoline], the IC50 was determined as 0.37 µM.
For `COc1c(OCc2ccccc2)cc2c(c1OC)C(/C=C/c1cc3c(cc1C)OCO3)NCC2` (stereo not drawn) [Compound 10, 6-benzyloxy-7,8-dimethoxy-1-[(E)-2-(6-methyl-1,3-benzodioxol-5-yl)vinyl]-1,2,3,4-tetrahydroisoquinoline] the value was 2.5 µM; for `COc1cc2c(cc1OCc1ccccc1)C(C)CNC2/C=C/c1cc2c(cc1C)OCO2` (stereo not drawn) [Compound 12, 6-Benzyloxy-7-methoxy-4-methyl-1-[(E)-2-(6-methyl-1,3-benzodioxol-5-yl)vinyl]-1,2,3,4-tetrahydroisoquinoline], 1.4 µM.
For `CCC1Cc2cc(OCc3ccccc3)c(OC)cc2C(/C=C/c2cc3c(cc2C)OCO3)N1` (stereo not drawn) [Compound 24, 6-Benzyloxy-7-methoxy-3-ethyl-1-[(E)-2-(6-methyl-1,3-benzodioxol-5-yl)vinyl]-1,2,3,4-tetrahydroisoquinoline] the value was 0.5 µM.
Take `COc1cc2c(cc1OCc1ccccc1)CCN(O)C2/C=C/c1cc2c(cc1C)OCO2` (stereo not drawn) [Compound 36, 6-benzyloxy-2-hydroxy-7-methoxy-1-[(E)-2-(6-methyl-1,3-benzodioxol-5-yl)vinyl]-3,4-dihydro-1H-isoquinoline]: the IC50 was 0.053 µM.
For `COc1cc2c(cc1OCc1ccccc1)C(Cl)CNC2/C=C/c1cc2c(cc1C)OCO2` (stereo not drawn) [Compound 61] the value was 2.5 µM.
